From patent US12042478B2, “(R)-2-[(2H-1,3-benzodioxol-5-yl)methyl]pyrrolidine and processes for preparation, compositions and uses thereof” (Pharmala Biotech Inc., priority 2022, dated 2024)

Experiments:
[1] = target: DAT (Homo sapiens, UniProt Q01959); assay: QSAR model predicted IC50, DAT; conditions: ratio = 1/DAT IC50:1/SERT IC50, from predicted IC50
Experimental: In silico studies (QSAR and docking) are useful tools to understand drug mechanisms, and they are relatively cheaper and faster than experiments. A QSAR model was created for each monoamine transporter. Additionally, the docking properties of phenethylamines were investigated.
QSAR: DAT, SERT and NET IC50 values were collected from the literature for 73 phenethylamines. Three different software's were used for descriptor calculations, and almost 2000 descriptors were calculated. Highly correlated descriptors were eliminated before multi-linear regression (MLR) analysis. All descriptors were merged with experimental inhibition values in QSARiNS software. The multi-Criteria Decision-Making tool of QSARiNS was used to pick the best model.
The predicted IC^50 (mM) values of the test molecules generated based on the QSAR developed as described above are presented in Table 4.

[2] = system: C57 and BTBR mice; assay: Social preference procedure: sociability test; type: in vivo, mouse; conditions: 1 mg/kg IP
Experimental: All drugs were dissolved in physiological 0.9% saline and administered at a constant volume of 1 ml/100 g body weight. Because all drugs utilized in these studies were synthesized as hydrochloride (HCl) salts, they were weighed as salts prior to the preparation of all solutions. All drugs at all concentrations are readily dissolved in an aqueous solution at normal pH. Injections of all drugs were administered intraperitoneally (IP) to mimic pharmacokinetic parameters typical of oral administration, without the behaviour-impairing effects of gavage stress.
This assay was conducted in adult male C57 and BTBR mice (n=6 per group) in a dedicated conditioning room where ambient light, sound, and human contact were tightly controlled.
(§1) Social preference chambers consisted of two polycarbonate boxes (13.5 cm wide×22.5 cm tall×31.0 cm deep), floored with rough-textured black ABS plastic, and connected to one another by a 1.25″ PVC T-junction. An infrared photobeam emitter/detector array was mounted at each intersection of the T-junction and each preference compartment, and as a mouse traversed the apparatus, it would break the photobeam upon entry to or exit from each preference compartment. Beam breaks started or stopped a counter on an interfaced computer, allowing automated collection of time spent in each compartment. At the end of each test, data were reported as time (in seconds) spent in each compartment, the number of entries into each compartment, and the average time spent in each compartment following an entry. Social preference tests were conducted in an iterative manner, with each test subject completing four distinct phases as described below. Between testing sessions, chambers were sanitized by wiping the insides with a disinfectant product provided by the UAMS Department of Laboratory Animal Medicine. At the end of the week (upon completion of all phases of the procedure), each apparatus was disassembled and all parts were sanitized. No food or water were available during social preference sessions, but were available in the home cage immediately afterwards.
A single sociability session occurred the day after the novelty preference test, where one compartment contained a wire mesh cup with a dummy mouse inside while the other compartment contained a male NIH Swiss stranger mouse inside the previously empty cup (see FIG. 4). […] The position of the dummy mouse (left or right compartment) remained the same for each subject as during the novelty test the day before, thereby counterbalancing the position of the stranger mouse across subjects. NIH Swiss stranger mice were similar in mass and appearance to the dummy PVC mice, and were housed separately from the experimental subjects (C57 and BTBR mice) in the colony facility. The first time the experimental subjects ever encountered the stranger mice was when they entered the compartment where they were contained. During this session, mice were weighed, administered the same injection as the day before, and returned to their home cage for a 30 min pretreatment period. Mice were then introduced into the T-junction and allowed to explore both preference compartments for 15 minutes. Sociability tests always occurred on Wednesdays or Thursdays to prevent any weekend testing.

[3] = system: C57 and BTBR mice; assay: Compartment entries during social novelty test (proxy for locomotor stimulant effects); type: in vivo, mouse; conditions: for total entries during social novelty test: relative to saline; for compartment entries during social novelty test, change of stimulation with dose: various doses
Excerpt: as §1
Quantifying total entries into the preference compartments provides a proxy measurement for locomotor stimulant effects of the various doses of the various test drugs. This establishes a limit to the drug doses that can be tested in the social preference procedure, as induction of locomotor stimulant effects confounds preference assessments (because mice stop attending to the social stimuli in each compartment and instead spend their time engaged in locomotor behavior.) Motor activity varies across the distinct phases of social preference testing, in part because the habituation session is twice as long (30 minutes) as the novelty, sociability, and social novelty tests (15 minutes each), but also because mice emit high levels of exploratory behavior in novel environments. Thus, as familiarity with the test apparatus increases over successive exposures to the chambers, the number of entries decreases.
(Note that entries were collected for every test, but drug effects on entries during earlier phases may be less reliable due to the confounding influence of changing familiarity with the apparatus across phases.)

[4] = system: C57 and BTBR mice; assay: Radiotelemetry of home cage locomotor activity; type: in vivo, mouse; conditions: for locomotor stimulant effects: IP, C57 and BTBR mice
Experimental: The radiotelemetry assay was conducted in adult male C57 and BTBR mice (n=6 per group) in a dedicated testing room where ambient light, sound, and human contact were tightly controlled.
Prior to surgical implantation of radiotelemetry probes, mice received 3 mg/kg meloxicam (IP), and anesthesia was induced with 4% inhaled isoflurane and maintained with 1-3% isoflurane (as needed) throughout the procedure at a flow rate of 1.5 litres/minute. The abdominal area of each animal was treated with depilatory cream, then sanitized with 3 alternating scrubs with iodine and alcohol. A rostral-caudal cut approximately 1.5 cm in length was made with sterile skin scissors, providing access to the intraperitoneal cavity. A cylindrical glass-encapsulated radiotelemetry probe (model ER-4000 E-Mitter, Mini Mitter, Bend, OR, USA) was then inserted. These probes measure 15.5 mm×6.5 mm and weigh approximately 1 gram. Incisions were closed (skin layer and muscle layer separately) using reverse cutting 5-0 Vicryl absorbable sutures for the muscle layer and 5-0 nylon suture material for the skin layer. Surgeries were carried out at least 7 days before initiation of experimental conditions, allowing time for incisions to heal and for animals to recover normal body weights. Following surgery, all implanted mice were individually housed in Plexiglas cages within the telemetry room for the duration of all experiments. Implanted transmitters produce activity- and temperature-modulated signals which are sent to a receiver (model ER-4000 Receiver, Mini Mitter Co., Inc.) underneath each cage. Following use, telemetry probes were removed from carcasses, wiped with alcohol swabs, and stored in the disinfectant solution until re-use.
At least 7 days after surgical implantation of radiotelemetry probes, mice in their individual home cages were placed atop a telemetry energizer/receiver, which powers probes and transmits their data to an interfaced computer. […]

Chain of DAT (Q01959 whole entry, species assumed): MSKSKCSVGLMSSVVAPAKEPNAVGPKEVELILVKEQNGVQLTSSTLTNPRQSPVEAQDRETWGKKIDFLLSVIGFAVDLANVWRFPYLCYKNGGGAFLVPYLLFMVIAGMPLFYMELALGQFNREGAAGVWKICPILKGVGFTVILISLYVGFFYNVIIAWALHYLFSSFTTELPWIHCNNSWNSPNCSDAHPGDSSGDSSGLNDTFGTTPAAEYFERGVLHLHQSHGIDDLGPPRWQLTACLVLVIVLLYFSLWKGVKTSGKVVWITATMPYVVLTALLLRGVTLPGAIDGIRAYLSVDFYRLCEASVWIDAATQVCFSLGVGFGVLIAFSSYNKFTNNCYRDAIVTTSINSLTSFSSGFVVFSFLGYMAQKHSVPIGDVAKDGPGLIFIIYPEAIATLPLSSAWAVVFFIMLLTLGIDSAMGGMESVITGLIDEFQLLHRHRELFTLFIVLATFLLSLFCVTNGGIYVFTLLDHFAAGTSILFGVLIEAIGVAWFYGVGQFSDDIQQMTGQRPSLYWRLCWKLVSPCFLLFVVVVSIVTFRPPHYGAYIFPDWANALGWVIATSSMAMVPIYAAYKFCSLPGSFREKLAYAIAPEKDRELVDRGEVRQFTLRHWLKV

Row | SMILES | DAT/SERT (calculated) [1] | sociability (time spent with stranger mouse) ([2]; BTBR mice) | sociability (time spent with stranger mouse) ([2]; C57 mice) | total entries during social novelty test ([3]; 1 mg/kg, C57 mice) | locomotor effect ([4]; 56 mg/kg i.p., BTBR mice, significantly different from saline) | locomotor stimulant effects ([4]; doses as high as 30 mg/kg) | compartment entries during social novelty test (stimulation) ([3]; 1 mg/kg, BTBR mice, compared to (R)-I, racemic MDMA and saline) | compartment entries during social novelty test, change of stimulation with dose ([3]; BTBR mice) | compartment entries during social novelty test, change of stimulation with dose ([3]; C57 mice) | locomotor stimulant effects ([4]; any dose tested)
1 | c1cc2c(cc1C[C@H]1CCCN1)OCO2 [(R)-I, (R)-2-[(2H-1,3-benzodioxol-5-yl)methyl]pyrrolidine] | 0.022 | minor increase in the sociability response | no impact | only slightly increased | locomotor effect stronger than C57 mice at the same dose | did not have significant locomotor stimulant effects | – | – | – | –
2 | c1cc2c(cc1C[C@@H]1CCCN1)OCO2 [(S)-I, (S)-2-[(2H-1,3-benzodioxol-5-yl)methyl]pyrrolidine] | 0.043 | strong response in sociability | slight increase in time spent with the stranger mouse | only slightly increased | – | – | substantially stimulated | increase with increasing dose | reverses | neither strain exhibited locomotor stimulant effects
